In patent US9328088B2, “Luminescent probes for biological labeling and imaging, and process for preparing the same” (CENTRE NATIONAL DE LA RECHERCHE SCIENTIFIQUE, priority 2011, dated 2016):
Where “and” joins values, the source holds several entries; their conditions need not be identical. Identical values can stand only once.

Experiments:
Type in all cases: physicochemical
[1] = Absorption properties of the terbium complexes; details: 0.01M TRIS/HCl buffer at pH = 7.0
Text: By way of example, all of the absorption and emission properties of the terbium complexes synthesized from ligands (I-1) to (I-4) in accordance with the invention are summarized in Table 1 below: […]

[2] = Emission properties: luminescence half-life τ and luminescence quantum yield φ in H2O and D2O; details: for Emission τ (luminescence half-life): error estimated ±5%; for Emission φ (luminescence quantum yield): error estimated ±15%
Text: The complexes according to the invention have varied applications, depending on the nature of the substituents of the pyridyl group of the ligand.
By way of example, all of the absorption and emission properties of the terbium complexes synthesized from ligands (I-1) to (I-4) in accordance with the invention are summarized in Table 1 below:
The parameters φ and τ represent, respectively, the luminescence quantum yields and the luminescence half-lives. They may be measured in water and in D2O.

[3] = Stability of the terbium complexes in various buffers (luminescence half-life τ)
Text: By way of example, the stability of the terbium complexes synthesized from ligands (I-1) to (I-4) in accordance with the invention in various buffers is given in Table 2 below. By way of comparison, Table 2 also gives the stability of a terbium complex TbL4 of the prior art corresponding to the following formula: […]

CCOP(=O)([O-])CN(CC(=O)[O-])Cc1ccn(-c2cc(C#Cc3cc(OCCOC)c(C(=O)NCCCC(=O)[O-])cc3OCCOC)cc(-n3ccc(CN(CC(=O)[O-])CP(=O)([O-])OCC)n3)n2)n1.[Na+].[Na+].[Na+].[Na+].[Na+].[Tb+3] [Tb(I-5)]
Absorption λabs [1]: 283 nm and 328 nm | quantum yields [2]: virtually quantitative | Emission τ (luminescence half-life) ([2]; D2O): 0.0031 s | Emission φ (luminescence quantum yield) ([2]; D2O): 96% | Emission τ (luminescence half-life) ([2]; H2O): 0.0026 s | Emission φ (luminescence quantum yield) ([2]; H2O): 88% | τ ([3]; H2O, estimated error ±5%): 2.6 ms | τ ([3]; Phosphate 0.1M, pH = 7.0): 2.6 ms | τ ([3]; Tris 50 mM-Serum 50%, pH = 7.0): 2.5 ms | τ ([3]; Tris 0.1M, pH = 7.0): 2.6 ms | τ ([3]; Tris 0.1M-EDTA 10 mM, pH = 7.0): 2.6 ms | τ ([3]; Tris 0.1M-KF 400 mM, pH = 7.0): 2.5 ms

CCOP(=O)([O-])CN(CC(=O)[O-])Cc1ccn(-c2cc(C#Cc3cc(OCCOC)c(C#CCCCCC(=O)[O-])cc3OCCOC)cc(-n3ccc(CN(CC(=O)[O-])CP(=O)([O-])OCC)n3)n2)n1.[Na+].[Na+].[Na+].[Na+].[Na+].[Tb+3] [Tb(I-6)]
Absorption λabs [1]: 275 nm and 328 nm | Emission τ (luminescence half-life) ([2]; D2O): 0.0032 s | Emission φ (luminescence quantum yield) ([2]; D2O): 35% | Emission τ (luminescence half-life) ([2]; H2O): 0.0026 s | Emission φ (luminescence quantum yield) ([2]; H2O): 26% | τ ([3]; H2O, estimated error ±5%): 2.6 ms | τ ([3]; Phosphate 0.1M, pH = 7.0): 2.6 ms | τ ([3]; Tris 50 mM-Serum 50%, pH = 7.0): 2.3 ms | τ ([3]; Tris 0.1M, pH = 7.0): 2.4 ms | τ ([3]; Tris 0.1M-EDTA 10 mM, pH = 7.0): 2.5 ms | τ ([3]; Tris 0.1M-KF 400 mM, pH = 7.0): 2.3 ms

CCOP(=O)([O-])CN(Cc1ccn(-c2cc(C#Cc3cc(OCCOC)c(C#CCCCCC(=O)[O-])cc3OCCOC)cc(-n3ccc(CN(CP(=O)([O-])OCC)CP(=O)([O-])OCC)n3)n2)n1)CP(=O)([O-])OCC.[Na+].[Na+].[Na+].[Na+].[Na+].[Tb+3] [Tb(I-8)]
Absorption λabs [1]: 272 nm and 327 nm | Emission τ (luminescence half-life) ([2]; D2O): 0.0035 s | Emission φ (luminescence quantum yield) ([2]; D2O): 30% | Emission τ (luminescence half-life) ([2]; H2O): 0.0032 s | Emission φ (luminescence quantum yield) ([2]; H2O): 26% | τ ([3]; H2O, estimated error ±5%): 3.2 ms | τ ([3]; Phosphate 0.1M, pH = 7.0): 3.2 ms | τ ([3]; Tris 50 mM-Serum 50%, pH = 7.0): 3.0 ms | τ ([3]; Tris 0.1M, pH = 7.0): 3.1 ms | τ ([3]; Tris 0.1M-EDTA 10 mM, pH = 7.0): 3.1 ms | τ ([3]; Tris 0.1M-KF 400 mM, pH = 7.0): 3.0 ms
